# Test results published in patent US20230073777A1, “CYCLIC-AMP RESPONSE ELEMENT BINDING PROTEIN (CBP) AND/OR ADENOVIRAL E1A BINDING PROTEIN OF 300 KDA (P300) DEGRADATION COMPOUNDS AND METHODS OF USE” (CULLGEN (SHANGHAI), INC., priority 2019, published 2023).
# Tests used:
# P300 = P300 (Homo sapiens, UniProt Q09472); test: Immunoblotting of P300 protein levels in LNCaP or 22RV1 cells; assay type: cell-based; set-up: LNCaP or 22RV1 cells that express CBP/P300 proteins were treated with GNE-781 or the bivalent compounds; endogenous in cells; host or cells: LNCaP (clone FGC) or 22RV1 cells; settings: percentage of inhibition of p300 at 10 nM (Table 3); read-out: Degradation (10 nM)
# In short: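 LNCaP or 22RV1 cells treated with compounds for indicated hours, DMSO as negative control. RIPA lysates resolved by SDS-PAGE and immunoblotted for P300 or CBP, tubulin or vinculin as loading control; chemiluminescent bands quantitated.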
# LNCaP cells = test: LNCaP cell viability assay (CellTiter-Glo); assay type: cell-based; settings: Homo sapiens, 72 h; LNCaP prostate cancer cell viability inhibition, 3 days, CellTiter-Glo (Table 3)
# In short: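 LNCaP cells, 5000/well, exposed to compounds in 12-point 3-fold serial dilution (top 10 μM) for 3 days. Viability by CellTiter-Glo luminescence, normalized to untreated cells; IC50 by least-squares nonlinear regression.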
# P300, sequence (Q09472 whole entry): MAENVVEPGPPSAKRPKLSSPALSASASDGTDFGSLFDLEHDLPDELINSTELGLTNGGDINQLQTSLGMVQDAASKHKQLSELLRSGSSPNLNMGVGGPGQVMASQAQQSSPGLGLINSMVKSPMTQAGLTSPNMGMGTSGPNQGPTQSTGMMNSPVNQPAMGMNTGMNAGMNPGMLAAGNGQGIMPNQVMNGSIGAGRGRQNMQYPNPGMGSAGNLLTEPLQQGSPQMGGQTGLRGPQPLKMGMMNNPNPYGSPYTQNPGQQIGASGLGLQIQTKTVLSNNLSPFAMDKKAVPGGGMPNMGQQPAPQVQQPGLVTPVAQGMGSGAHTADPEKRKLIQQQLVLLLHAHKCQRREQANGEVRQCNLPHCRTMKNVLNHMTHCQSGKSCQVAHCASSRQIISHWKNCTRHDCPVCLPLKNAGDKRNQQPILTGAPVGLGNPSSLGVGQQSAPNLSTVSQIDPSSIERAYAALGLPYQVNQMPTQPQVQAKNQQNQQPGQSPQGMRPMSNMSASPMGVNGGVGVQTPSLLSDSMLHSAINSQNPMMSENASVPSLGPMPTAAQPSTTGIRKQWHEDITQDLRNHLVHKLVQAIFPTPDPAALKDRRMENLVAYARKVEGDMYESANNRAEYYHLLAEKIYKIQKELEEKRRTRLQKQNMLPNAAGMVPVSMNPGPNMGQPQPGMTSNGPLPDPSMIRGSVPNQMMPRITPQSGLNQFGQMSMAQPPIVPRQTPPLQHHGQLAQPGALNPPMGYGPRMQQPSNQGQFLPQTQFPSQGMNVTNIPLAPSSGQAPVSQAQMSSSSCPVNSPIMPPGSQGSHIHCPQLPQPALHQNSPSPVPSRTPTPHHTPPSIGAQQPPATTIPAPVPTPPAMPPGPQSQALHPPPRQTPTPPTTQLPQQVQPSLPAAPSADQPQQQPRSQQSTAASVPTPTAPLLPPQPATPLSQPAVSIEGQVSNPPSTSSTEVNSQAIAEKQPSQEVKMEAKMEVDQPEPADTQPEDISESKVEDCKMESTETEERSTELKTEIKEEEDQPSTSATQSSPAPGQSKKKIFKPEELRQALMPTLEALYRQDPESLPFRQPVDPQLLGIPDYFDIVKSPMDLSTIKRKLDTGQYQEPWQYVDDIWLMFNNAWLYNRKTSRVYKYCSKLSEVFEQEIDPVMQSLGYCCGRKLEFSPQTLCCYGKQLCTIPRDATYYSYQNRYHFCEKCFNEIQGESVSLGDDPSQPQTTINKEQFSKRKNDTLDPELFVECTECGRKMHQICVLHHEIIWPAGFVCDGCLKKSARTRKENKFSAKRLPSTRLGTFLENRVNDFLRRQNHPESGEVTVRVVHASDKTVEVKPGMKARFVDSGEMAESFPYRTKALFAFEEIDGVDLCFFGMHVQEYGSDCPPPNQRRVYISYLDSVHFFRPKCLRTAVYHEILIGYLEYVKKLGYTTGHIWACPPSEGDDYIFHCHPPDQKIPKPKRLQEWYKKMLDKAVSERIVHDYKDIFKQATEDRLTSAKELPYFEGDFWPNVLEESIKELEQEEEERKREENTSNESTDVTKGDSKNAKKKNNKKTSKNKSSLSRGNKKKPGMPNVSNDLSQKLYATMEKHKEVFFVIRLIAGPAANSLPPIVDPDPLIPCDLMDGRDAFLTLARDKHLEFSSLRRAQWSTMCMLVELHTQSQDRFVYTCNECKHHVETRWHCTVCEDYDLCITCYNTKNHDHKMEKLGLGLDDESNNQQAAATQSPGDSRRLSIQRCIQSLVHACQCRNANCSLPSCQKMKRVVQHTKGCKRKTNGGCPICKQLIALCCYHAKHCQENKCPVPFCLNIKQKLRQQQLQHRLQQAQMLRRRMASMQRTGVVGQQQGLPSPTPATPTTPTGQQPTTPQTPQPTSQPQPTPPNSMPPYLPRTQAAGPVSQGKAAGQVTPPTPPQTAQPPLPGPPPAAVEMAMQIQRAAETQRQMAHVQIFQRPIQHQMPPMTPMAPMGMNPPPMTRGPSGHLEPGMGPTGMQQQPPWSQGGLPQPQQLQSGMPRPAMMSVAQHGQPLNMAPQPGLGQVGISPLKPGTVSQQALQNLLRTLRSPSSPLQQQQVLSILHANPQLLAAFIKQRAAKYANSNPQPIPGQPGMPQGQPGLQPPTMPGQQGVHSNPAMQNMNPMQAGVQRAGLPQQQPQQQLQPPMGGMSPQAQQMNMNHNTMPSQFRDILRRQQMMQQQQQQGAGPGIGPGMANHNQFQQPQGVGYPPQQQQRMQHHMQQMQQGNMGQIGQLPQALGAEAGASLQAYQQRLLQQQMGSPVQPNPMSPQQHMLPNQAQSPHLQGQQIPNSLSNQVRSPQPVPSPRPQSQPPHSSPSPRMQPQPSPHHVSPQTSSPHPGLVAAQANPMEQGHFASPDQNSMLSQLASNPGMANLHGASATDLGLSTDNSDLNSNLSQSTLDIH
inhibition at 0.01 µM (P300) [%],IC50 (LNCaP cells) [nM],Compound
> 80,14.8,"CC(=O)N1CCc2c(c(N3CCCc4cc(-c5cnn(C)c5)c(C(F)F)cc43)nn2C2CCN(CCCCCCOc3cccc4c3C(=O)N(C3CCC(=O)NC3=O)C4=O)CC2)C1 (stereo not drawn) [P-113, 4-((6-(4-(5-acetyl-3-(7-(difluoromethyl)-6-(1-methyl-1H-pyrazol-4-yl)-3,4-dihydroquinolin-1(2H)-yl)-4,5,6,7-tetrahydro-1H-pyrazolo[4,3-c]pyridin-1-yl)piperidin-1-yl)hexyl)oxy)-2-(2,6-dioxopiperidin-3-yl)isoindoline-1,3-dione]"
20 to 50,877,"CNC(=O)N1CCc2c(c(N3CCCc4cc(-c5cnn(C)c5)c(C(F)F)cc43)nn2C2CCN(C(=O)CCCCCCNc3cccc4c3n(C)c(=O)n4C3CCC(=O)NC3=O)CC2)C1 (stereo not drawn) [P-114, 3-(7-(Difluoromethyl)-6-(1-methyl-1H-pyrazol-4-yl)-3,4-dihydroquinolin-1(2H)-yl)-1-(1-(7-((1-(2,6-dioxopiperidin-3-yl)-3-methyl-2-oxo-2,3-dihydro-1H-benzo[d]imidazol-4-yl)amino)heptanoyl)piperidin-4-yl)-N-methyl-1,4,6,7-tetrahydro-5H-pyrazolo[4,3-c]pyridine-5-carboxamide]"
> 80,7.1,"CNC(=O)N1CCc2c(c(N3CCCc4cc(-c5cnn(C)c5)c(C(F)F)cc43)nn2C2CCN(C(=O)CCCCCNc3ccc4c(c3)n(C)c(=O)n4C3CCC(=O)NC3=O)CC2)C1 (stereo not drawn) [P-115, 3-(7-(difluoromethyl)-6-(1-methyl-1H-pyrazol-4-yl)-3,4-dihydroquinolin-1(2H)-yl)-1-(1-(6-((1-(2,6-dioxopiperidin-3-yl)-3-methyl-2-oxo-2,3-dihydro-1H-benzo[d]imidazol-5-yl)amino)hexanoyl)piperidin-4-yl)-N-methyl-1,4,6,7-tetrahydro-5H-pyrazolo[4,3-c]pyridine-5-carboxamide]"
> 80,9.6,"CC(=O)N1CCc2c(c(N3CCCc4cc(-c5cnn(C)c5)c(C(F)F)cc43)nn2C2CCN(C(=O)CCCCCNc3ccc4c(c3)n(C)c(=O)n4C3CCC(=O)NC3=O)CC2)C1 (stereo not drawn) [P-116, 3-(5-((6-(4-(5-acetyl-3-(7-(difluoromethyl)-6-(1-methyl-1H-pyrazol-4-yl)-3,4-dihydroquinolin-1(2H)-yl)-4,5,6,7-tetrahydro-1H-pyrazolo[4,3-c]pyridin-1-yl)piperidin-1-yl)-6-oxohexyl)amino)-3-methyl-2-oxo-2,3-dihydro-1H-benzo[d]imidazol-1-yl)piperidine-2,6-dione]"
> 80,41.2,"CC(=O)N1CCc2c(c(N3CCCc4cc(-c5cnn(C)c5)c(C(F)F)cc43)nn2C2CCN(C(=O)CCCCCOc3cccc4c3C(=O)N(C3CCC(=O)NC3=O)C4=O)CC2)C1 (stereo not drawn) [P-117, 4-((6-(4-(5-Acetyl-3-(7-(difluoromethyl)-6-(1-methyl-1H-pyrazol-4-yl)-3,4-dihydroquinolin-1(2H)-yl)-4,5,6,7-tetrahydro-1H-pyrazolo[4,3-c]pyridin-1-yl)piperidin-1-yl)-6-oxohexyl)oxy)-2-(2,6-dioxopiperidin-3-yl)isoindoline-1,3-dione]"
20 to 50,17.8,"CC(=O)N1CCc2c(c(N3CCCc4cc(-c5cnn(C)c5)c(C(F)F)cc43)nn2C2CCN(C(=O)CCCCCCc3cccc4c3C(=O)N(C3CCC(=O)NC3=O)C4=O)CC2)C1 (stereo not drawn) [P-118, 4-(7-(4-(5-Acetyl-3-(7-(difluoromethyl)-6-(1-methyl-1H-pyrazol-4-yl)-3,4-dihydroquinolin-1(2H)-yl)-4,5,6,7-tetrahydro-1H-pyrazolo[4,3-c]pyridin-1-yl)piperidin-1-yl)-7-oxoheptyl)-2-(2,6-dioxopiperidin-3-yl)isoindoline-1,3-dione]"
> 80,1.7,"CC(=O)N1CCc2c(c(N3CCCc4cc(-c5cnn(C)c5)c(C(F)F)cc43)nn2C2CCN(C(=O)CCCCCCCNc3ccc4c(c3)C(=O)N(C3CCC(=O)NC3=O)C4=O)CC2)C1 (stereo not drawn) [P-119, 5-((8-(4-(5-acetyl-3-(7-(difluoromethyl)-6-(1-methyl-1H-pyrazol-4-yl)-3,4-dihydroquinolin-1(2H)-yl)-4,5,6,7-tetrahydro-1H-pyrazolo[4,3-c]pyridin-1-yl)piperidin-1-yl)-8-oxooctyl)amino)-2-(2,6-dioxopiperidin-3-yl)isoindoline-1,3-dione]"
> 80,9.4,"CC(=O)N1CCc2c(c(N3CCCc4cc(-c5cnn(C)c5)c(C(F)F)cc43)nn2C2CCN(C(=O)CCCCCNc3ccc4c(c3)C(=O)N(C3CCC(=O)NC3=O)C4=O)CC2)C1 (stereo not drawn) [P-120, 5-((6-(4-(5-acetyl-3-(7-(difluoromethyl)-6-(1-methyl-1H-pyrazol-4-yl)-3,4-dihydroquinolin-1(2H)-yl)-4,5,6,7-tetrahydro-1H-pyrazolo[4,3-c]pyridin-1-yl)piperidin-1-yl)-6-oxohexyl)amino)-2-(2,6-dioxopiperidin-3-yl)isoindoline-1,3-dione]"
> 80,28.8,"CC(=O)N1CCc2c(c(N3CCCc4cc(-c5cnn(C)c5)c(C(F)F)cc43)nn2C2CCN(C(=O)CCCCCOc3cccc4c3CN(C3CCC(=O)NC3=O)C4=O)CC2)C1 (stereo not drawn) [P-121, 3-(4-((6-(4-(5-Acetyl-3-(7-(difluoromethyl)-6-(1-methyl-1H-pyrazol-4-yl)-3,4-dihydroquinolin-1(2H)-yl)-4,5,6,7-tetrahydro-1H-pyrazolo[4,3-c]pyridin-1-yl)piperidin-1-yl)-6-oxohexyl)oxy)-1-oxoisoindolin-2-yl)piperidine-2,6-dione]"
> 80,84.4,"CC(=O)N1CCc2c(c(N3CCCc4cc(-c5cnn(C)c5)c(C(F)F)cc43)nn2C2CCN(C(=O)CCCCC#Cc3cccc4c3CN(C3CCC(=O)NC3=O)C4=O)CC2)C1 (stereo not drawn) [P-122, 3-(4-(7-(4-(5-Acetyl-3-(7-(difluoromethyl)-6-(1-methyl-1H-pyrazol-4-yl)-3,4-dihydroquinolin-1(2H)-yl)-4,5,6,7-tetrahydro-1H-pyrazolo[4,3-c]pyridin-1-yl)piperidin-1-yl)-7-oxohept-1-yn-1-yl)-1-oxoisoindolin-2-yl)piperidine-2,6-dione]"
> 80,20.3,"CC(=O)N1CCc2c(c(N3CCCc4cc(-c5cnn(C)c5)c(C(F)F)cc43)nn2C2CCN(C(=O)CN3CCC(CNc4cccc5c4C(=O)N(C4CCC(=O)NC4=O)C5=O)CC3)CC2)C1 (stereo not drawn) [P-123, 4-(((1-(2-(4-(5-Acetyl-3-(7-(difluoromethyl)-6-(1-methyl-1H-pyrazol-4-yl)-3,4-dihydroquinolin-1(2H)-yl)-4,5,6,7-tetrahydro-1H-pyrazolo[4,3-c]pyridin-1-yl)piperidin-1-yl)-2-oxoethyl)piperidin-4-yl)methyl)amino)-2-(2,6-dioxopiperidin-3-yl)isoindoline-1,3-dione]"
< 20,> 10000,"CC(=O)N1CCc2c(c(N3CCCc4cc(-c5cnn(C)c5)c(C(F)F)cc43)nn2C2CCN(CCCNC(=O)CNc3cccc4c3C(=O)N(C3CCC(=O)NC3=O)C4=O)CC2)C1 (stereo not drawn) [P-124, N-(3-(4-(5-Acetyl-3-(7-(difluoromethyl)-6-(1-methyl-1H-pyrazol-4-yl)-3,4-dihydroquinolin-1(2H)-yl)-4,5,6,7-tetrahydro-1H-pyrazolo[4,3-c]pyridin-1-yl)piperidin-1-yl)propyl)-2-((2-(2,6-dioxopiperidin-3-yl)-1,3-dioxoisoindolin-4-yl)amino)acetamide]"
> 80,42.1,"CNC(=O)N1CCc2c(c(N3CCCc4cc(-c5cnn(C)c5)c(C(F)F)cc43)nn2C2CCN(C(=O)CCCCNc3ccc4c(c3)n(C)c(=O)n4C3CCC(=O)NC3=O)CC2)C1 (stereo not drawn) [P-125, 3-(7-(Difluoromethyl)-6-(1-methyl-1H-pyrazol-4-yl)-3,4-dihydroquinolin-1(2H)-yl)-1-(1-(5-((1-(2,6-dioxopiperidin-3-yl)-3-methyl-2-oxo-2,3-dihydro-1H-benzo[d]imidazol-5-yl)amino)pentanoyl)piperidin-4-yl)-N-methyl-1,4,6,7-tetrahydro-5H-pyrazolo[4,3-c]pyridine-5-carboxamide]"
> 80,94,"CC(=O)N1CCc2c(c(N3CCCc4cc(-c5cnn(C)c5)c(C(F)F)cc43)nn2C2CCN(C(=O)CCCCNc3ccc4c(c3)n(C)c(=O)n4C3CCC(=O)NC3=O)CC2)C1 (stereo not drawn) [P-126, 3-(5-((5-(4-(5-Acetyl-3-(7-(difluoromethyl)-6-(1-methyl-1H-pyrazol-4-yl)-3,4-dihydroquinolin-1(2H)-yl)-4,5,6,7-tetrahydro-1H-pyrazolo[4,3-c]pyridin-1-yl)piperidin-1-yl)-5-oxopentyl)amino)-3-methyl-2-oxo-2,3-dihydro-1H-benzo[d]imidazol-1-yl)piperidine-2,6-dione]"
20 to 50,402,"CNC(=O)N1CCc2c(c(N3CCCc4cc(-c5cnn(C)c5)c(C(F)F)cc43)nn2C2CCN(C(=O)CCCCNc3cccc4c3n(C)c(=O)n4C3CCC(=O)NC3=O)CC2)C1 (stereo not drawn) [P-127, 3-(7-(Difluoromethyl)-6-(1-methyl-1H-pyrazol-4-yl)-3,4-dihydroquinolin-1(2H)-yl)-1-(1-(5-((1-(2,6-dioxopiperidin-3-yl)-3-methyl-2-oxo-2,3-dihydro-1H-benzo[d]imidazol-4-yl)amino)pentanoyl)piperidin-4-yl)-N-methyl-1,4,6,7-tetrahydro-5H-pyrazolo[4,3-c]pyridine-5-carboxamide]"
